What was measured:
(H^+ +K^+) ATPase = target: T1, (H^+ +K^+) ATPase (Sus scrofa, UniProt P19156); test: Inhibitory effect on (H^+ +K^+) ATPase; type: biochemical, hog; conditions: in vitro; for inhibition at 1000 µM: at 1 × 10^-3 M, read-out: Degree of inhibition, Inhibitory effect on (H^+ + K^+) ATPase
T1 construct: prepared from fresh pieces of the fundus ventriculi of hog stomach; from tissue; host or cells: hog stomach, fundus ventriculi (fresh pieces), prepared by the method of Saccomani et al., J. Biol. Chem. 1976
Procedure: The inhibitory effect of the present compounds [I] on (H^+ +K^+) ATPase was tested by adding each test compound to a solution containing 300-500 μg, on a protein basis, of the enzyme, incubating this reaction mixture at 35°-37° C. for 5-30 minutes, and then determining the residual activity of (H^+ +K^+) ATPase present in the reaction mixture. The test compounds were dissolved in methanol or ethanol in advance and added to the reaction system in such an amount as to give a concentration of 1×10^-3 M. The (H^+ +K^+) ATPase used in this test was prepared from fresh pieces of the fundus ventriculi of hog stomach according to the method of Saccomani et al. (The Journal of Biological Chemistry, Vol. 251, No. 23, p. 7690, 1976). The residual activity of (H^+ +K^+) ATPase was determined by mixing magnesium chloride and potassium chloride with the incubated reaction mixture, adding adenosine triphosphate thereto, incubating this assay mixture 37° C. for 5-15 minutes to effect an enzymic reaction, and colorimetrically determining the liberated inorganic phosphate by use of an ammonium molybdate reagent. The initial concentrations of magnesium chloride, potassium chloride and adenosine triphosphate were adjusted to 2 mM, 20 mM and 2 mM, respectively. Colorimetric determinations were made at a wavelength of 360-400 nm. As a control experiment, the residual activity of (H^+ +K^+) ATPase was determined by repeating the above-described procedure without adding any test compound to the reaction system. In this table, the inhibitory effect is indicated by the degree of inhibition which was obtained by calculating the difference between the measured value obtained in the control experiment and the measured value resulting from the addition of each test compound and expressing this difference as a percentage of the measured value obtained in the control experiment. For purposes of comparison, the inhibitory effect of Omeprazole and Compounds α and β on (H^+ +K^+) ATPase was tested in the same manner as described above and the results thus obtained are also shown in Table 2.

[1] = test system: Water-immersion stress ulcer; test: Inhibitory effect on water-immersion stress ulcer; type: in vivo, male Wistar rats; conditions: Rattus norvegicus; oral, rats; 10 minutes before exposure to the stress; 10 hours; read-out: Inhibitory effect on Water-immersion stress ulcer, ID50
Procedure: (§1) The inhibitory effects of the present compounds [I] on various experimental ulcers were tested by using male Wistar rats, weighing about 200 g, in groups of six and determining the respective ulceration indexes for 5 types of experimental ulcers. In each test, the test compounds were suspended in a 0.5% aqueous solution of carboxymethyl cellulose and administered orally in a series of appropriately selected doses ranging from 1 to 100 mg/kg. The test procedures for 5 types of experimental ulcers were as follows:
Rats which had been fasted for 15 hours were immobilized in stress cages and immersed chest-deep in a water bath at 21° C. After 10 hours, each rat was sacrificed and the length of the ulcer(s) formed in the glandular stomach part was measured. The ulceration index was calculated on the basis of the data thus obtained. The test compounds were administered 10 minutes before exposure to the stress.
(§2) The pharmacological effect of the test compounds on each of the aforesaid experimental ulcers was evaluated on the basis of the dose (in mg/kg) required to inhibit the formation of ulcers by 50% (hereinafter referred to as ID50). The ID50 value of each test compound was determined by calculating the difference in ulceration index between the untreated group and each treated group, dividing the difference by the ulceration index of the untreated group to obtain the degree of inhibition, and constructing a dose-response curve on the basis of the data thus obtained. For purposes of comparison, the ID50 values of Omeprazole and Compounds α and β were determined in the same manner as described above and are also shown in Table 4.

Shay's ulcer = test: Inhibitory effect on Shay's ulcer; type: in vivo, male Wistar rats; conditions: Rattus norvegicus; oral, rats; 30 minutes before ligation; 14 hours; read-out: Inhibitory effect on Shay's ulcer, ID50
Procedure: as §1
In rats which had been fasted for 48 hours, the pyloric end of the stomach was ligated and they were maintained for 14 hours without giving any food or water. Then, each rat was sacrificed and the area of the ulcer(s) formed in the forestomach part was measured. The ulceration index was calculated on the basis of the data thus obtained. The test compounds were administered 30 minutes before ligation.
as §2

gastric acid secretion = test: Inhibitory effect on gastric acid secretion (pylorus ligation); type: in vivo, male Wistar rats; conditions: for ED50: Rattus norvegicus, po, rats, total acidity of gastric juice 4 hours after pylorus ligation; for inhibitory effect on gastric acid secretion (in words): in vivo
Procedure: The inhibitory effect of the present compounds [I] on gastric acid secretion was tested by using male Wistar rats, weighing about 200 g, in groups of five. To these rats which had been fasted overnight, the test compounds were orally administered in a series of appropriately selected doses ranging from 1 to 100 mg/kg. Then, the pyloric end of the stomach was ligated. After the lapse of 4 hours, the total acidity of gastric juice of each rat was measured. More specifically, the test compounds were suspended in a 0.5% aqueous solution of carboxymethyl cellulose and administered to the rats 30 minutes before ligation. Gastric juice was collected by sacrificing and laparotomizing each rat. The total acidity of gastric juice was determined by titrating the gastric juice with a 0.1 N aqueous solution of sodium hydroxide until a pH of 7.0 was reached. As a control experiment, the total acidity of gastric juice of an untreated group was determined in the same manner as described above. The inhibitory effect of the test compounds on gastric acid secretion was evaluated on the basis of the dose (in mg/kg) required to inhibit gastric acid secretion, i.e. the total acidity of gastric juice, by 50% (hereinafter referred to as ED50). The ED50 value of each test compound was determined by calculating the difference in total acidity between the untreated group and each treated group, dividing the difference by the total acidity of the untreated group to obtain the degree of inhibition, and constructing a dose-response curve on the basis of the data thus obtained. For purposes of comparison, the ED50 values of Omeprazole and Compounds α and β were determined in the same manner as described above and are also shown in Table 3.

T1 sequence (P19156 2-1034 limits assumed): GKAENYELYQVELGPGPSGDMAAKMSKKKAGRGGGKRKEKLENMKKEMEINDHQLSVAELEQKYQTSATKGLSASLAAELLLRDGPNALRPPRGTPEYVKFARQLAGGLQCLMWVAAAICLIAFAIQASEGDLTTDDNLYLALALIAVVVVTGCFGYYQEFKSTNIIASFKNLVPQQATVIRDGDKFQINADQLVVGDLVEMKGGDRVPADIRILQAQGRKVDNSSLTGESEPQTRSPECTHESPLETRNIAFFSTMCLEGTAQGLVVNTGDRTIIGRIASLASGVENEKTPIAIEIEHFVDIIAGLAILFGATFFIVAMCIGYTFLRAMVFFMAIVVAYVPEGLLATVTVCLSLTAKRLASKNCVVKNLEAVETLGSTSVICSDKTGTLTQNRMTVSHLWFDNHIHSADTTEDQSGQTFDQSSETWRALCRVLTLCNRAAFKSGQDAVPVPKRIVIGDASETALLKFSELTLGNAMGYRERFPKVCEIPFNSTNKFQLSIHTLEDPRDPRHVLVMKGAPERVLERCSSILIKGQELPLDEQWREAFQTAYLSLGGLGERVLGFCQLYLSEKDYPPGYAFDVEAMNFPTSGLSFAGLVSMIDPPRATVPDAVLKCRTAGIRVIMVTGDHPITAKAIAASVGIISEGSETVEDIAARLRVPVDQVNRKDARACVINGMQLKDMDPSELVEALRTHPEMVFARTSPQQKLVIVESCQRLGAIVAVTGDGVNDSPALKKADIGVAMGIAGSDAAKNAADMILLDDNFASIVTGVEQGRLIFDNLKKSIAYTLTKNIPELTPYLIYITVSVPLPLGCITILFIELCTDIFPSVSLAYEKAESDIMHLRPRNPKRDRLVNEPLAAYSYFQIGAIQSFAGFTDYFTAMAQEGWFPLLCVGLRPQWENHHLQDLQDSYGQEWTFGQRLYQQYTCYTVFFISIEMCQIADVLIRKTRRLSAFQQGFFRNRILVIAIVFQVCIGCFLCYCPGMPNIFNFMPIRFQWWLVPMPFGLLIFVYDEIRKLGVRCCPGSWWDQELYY
T1 sequence (P18434 whole entry partner): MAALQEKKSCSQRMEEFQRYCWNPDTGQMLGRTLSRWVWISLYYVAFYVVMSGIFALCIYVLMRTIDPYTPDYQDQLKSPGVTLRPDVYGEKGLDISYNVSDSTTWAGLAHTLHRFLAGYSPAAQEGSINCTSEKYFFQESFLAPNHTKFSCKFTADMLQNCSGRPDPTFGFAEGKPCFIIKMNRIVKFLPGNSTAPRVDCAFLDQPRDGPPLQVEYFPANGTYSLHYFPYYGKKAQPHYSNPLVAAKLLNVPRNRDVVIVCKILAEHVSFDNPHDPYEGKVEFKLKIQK

| inhibitory effect on (H^+ +K^+) ATPase (in words) ((H^+ +K^+) ATPase) | Structure (SMILES) | inhibition at 1000 µM ((H^+ +K^+) ATPase) [%] | ED50 [1] [mg/kg] | ED50 (Shay's ulcer) [mg/kg] | ED50 (gastric acid secretion) [mg/kg] | inhibitory effect on gastric acid secretion (in words) (gastric acid secretion) |
| --- | --- | --- | --- | --- | --- | --- |
| marked inhibitor effect | COc1c(C)cnc(C[S+]([O-])c2nc3ncc(Br)cc3[nH]2)c1C (stereo not drawn) [Compound α, 2-[2-(3,5-dimethyl-4-methoxy)pyridylmethylsulfinyl]-6-bromoimidazo[4,5-b]pyridine, reference compound] | 100 | ≥ 100 | ≥ 100 | 73 | not satisfactorily reflected in the in vivo tests |
| marked inhibitor effect | COc1c(C)cnc(C[S+]([O-])c2nc3ncc(C)cc3[nH]2)c1C (stereo not drawn) [Compound β, 2-[2-(3,5-dimethyl-4-methoxy)pyridylmethylsulfinyl]-6-methylimidazo[4,5-b]-pyridine, reference compound] | 100 | 63.3 | 42 | 41 | not satisfactorily reflected in the in vivo tests |
| – | COc1ccc2[nH]c([S+]([O-])Cc3ncc(C)cc3C)nc2n1 (stereo not shown) [Example 1, 2-[2-(3,5-Dimethyl)pyridylmethylsulfinyl]-5-methoxyimidazo[4,5-b]pyridine] | 100 | 26.4 | 11 | 13 | – |
| – | CCOc1ccc2[nH]c([S+]([O-])Cc3ncc(C)c(C)c3C)nc2n1 (stereo not shown) [Example 8, 2-[2-(3,4,5-Trimethyl)pyridylmethylsulfinyl]-5-ethoxyimidazo[4,5-b]pyridine] | 100 | 34.2 | 15.1 | 12 | – |
| – | COc1cc(C[S+]([O-])c2nc3nc(OCC4CC4)ccc3[nH]2)ncc1C (stereo not shown) [Example 13, 2-[2-(4-Methoxy-5-methyl)pyridylmethylsulfinyl]-5-cyclopropylmethyloxyimidazo[4,5-b]pyridine] | 87.4 | 37.3 | 17.4 | 18 | – |
| – | COc1c(C)cnc(C[S+]([O-])c2nc3nc(OCC4CC4)ccc3[nH]2)c1C (stereo not shown) [Example 24, 2-[2-(3,5-Dimethyl-4-methoxy)pyridylmethylsulfinyl]-5-cyclopropylmethyloxyimidazo[4,5-b]pyridine] | 100 | 27 | 10.8 | 9 | – |
| – | COc1c(C)cnc(C[S+]([O-])c2nc3nc(OCC(F)(F)F)ccc3[nH]2)c1C (stereo not shown) [Example 26, 2-[2-(3,5-Dimethyl-4-methoxy)pyridylmethylsulfinyl]-5-(2,2,2-trifluoroethoxy)imidazo[4,5-b]pyridine] | 100 | 30.5 | 14.7 | 15 | – |
| – | CCCCCCCOc1ccc2[nH]c([S+]([O-])Cc3ncc(C)cc3C)nc2n1 (stereo not shown) [Example 33, 2-[2-(3,5-Dimethyl)pyridylmethylsulfinyl]-5-n-heptyloxyimidazo[4,5-b]pyridine] | 95.4 | 35.1 | 19.2 | 17 | – |
| – | COc1ccc2[nH]c([S+]([O-])Cc3ncc(C)c(OC)c3C)nc2c1 (stereo not shown) [Omeprazole, reference compound] | 38.7 | 39.7 | 30.3 | 35 | – |

— US4808596A, “Imidazo[4,5-b]pyridine compounds and pharmaceutical compositions containing same” (Tokyo Tanabe Company, Ltd., priority 1986, dated 1989)
